Test results from BindingDB's records for doi:10.1111/cbdd.12728 (Jawaharlal Nehru Centre For Advanced Scientific Research, 2016).
Where “and” joins values, the source holds several entries; their conditions need not be identical. Identical values can stand only once.

Target: Aurora kinase B (Homo sapiens, UniProt Q96GD4)
Test: Isothermal Titration Calorimetry (ITC)
Conditions: pH 8; 25 °C
Method: Calorimetric titrations were performed in a Microcal iTC 200 microcalorimeter. Freshly purified 5 µM protein (Aurora A/B kinases) was titrated against 100 µM ligand (felodipine/ PTK66) in each case at 25 °C. Proteins and the ligandswere diluted in the final dialysate (20 mM Tris-HCl, pH 8.0, 0.2 mM EDTA and 100 mM KCl) against which the proteins were extensively dialysed to avoid any artefact due to the minor differences in buffer composition. DMSO content was kept exactly same in the cell (not exceeding 0.2% v/v) and syringe to rule out any interference due to DMSO content mismatch. All samples were thoroughly degassed prior to titration and were prepared with the same batch of dialysate to avoid any artefacts from the minor differences in buffer composition. Dilutions of 100 µM felodipine/PTK66 in dialysate containing equal percentage of DMSOserved as controls. The stirring speed was 300 rpm.

Aurora kinase B, sequence (Q96GD4 whole entry): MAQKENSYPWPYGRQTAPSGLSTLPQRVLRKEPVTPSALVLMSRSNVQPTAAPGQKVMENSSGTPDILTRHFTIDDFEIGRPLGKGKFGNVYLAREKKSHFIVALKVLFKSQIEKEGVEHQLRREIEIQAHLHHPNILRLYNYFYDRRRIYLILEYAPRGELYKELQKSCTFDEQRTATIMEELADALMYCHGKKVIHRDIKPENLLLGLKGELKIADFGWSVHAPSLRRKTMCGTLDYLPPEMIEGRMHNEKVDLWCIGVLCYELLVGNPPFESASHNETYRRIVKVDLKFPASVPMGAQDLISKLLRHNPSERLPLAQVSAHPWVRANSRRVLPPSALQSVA

| SMILES | Kd |
| --- | --- |
| CCOC(=O)C1=C(C)NC(C)=C(C(=O)OC)[C@H]1c1cccc(Cl)c1Cl [5-O-ethyl 3-O-methyl 4-(2,3-dichlorophenyl)-2,6-dimethyl-1,4-dihydropyridine-3,5-dicarboxylate] | 1140 nM |
| Cc1cc(O)cc(O)c1/N=N/c1nccs1 [5-methyl-4-(2-thiazolylazo)resorcinol] | 1750 nM and 500 nM |
